# US20230295141A1, “FXR SMALL MOLECULE AGONIST, THE PREPARATION AND USE THEREOF” (Cascade Pharmaceuticals, Inc., priority 2022, published 2023)
# Where two headings read alike, the source gives them in different places.
# Target: T1, FXR (Homo sapiens, UniProt Q96RI1)
# T1 construct: expressed in transfected cells; host or cells: HEK293T
# T1 sequence (Q96RI1 212-476 isoform Q96RI1-1 limits assumed): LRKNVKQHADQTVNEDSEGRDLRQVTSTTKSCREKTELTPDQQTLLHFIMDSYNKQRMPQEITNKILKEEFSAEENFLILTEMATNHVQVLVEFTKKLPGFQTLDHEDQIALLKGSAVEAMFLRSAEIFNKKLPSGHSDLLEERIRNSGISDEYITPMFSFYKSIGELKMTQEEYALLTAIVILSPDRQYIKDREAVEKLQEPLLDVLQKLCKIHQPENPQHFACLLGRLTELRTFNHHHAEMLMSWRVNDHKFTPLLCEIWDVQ
# Test: FXR agonistic activity by GAL4-FXR-LBD reporter gene (Dual-Glo luciferase) detection in HEK293T cells
# Assay type: cell-based
# Excerpt: Methods for Detecting FXR Agonistic Activity of Compounds Based on Reporter Gene Activity Detection Methods: The pGAL4-FXR-LBD and pG5-Luc plasmids used in the reporter gene detection system were constructed according to conventional molecular cloning methods, including main steps: the FXR (NM_001206979.2) cDNA sequence corresponding to the amino acid sequence of FXR-LBD (212-476AA) was inserted into pGAL4 vector between BamHI and Notl restriction sites using PCR technology to obtain pGAL4-FXR-LBD; pG5-Luc and phRL-TK plasmids were donated by Shanghai Institute of Materia Medica, Chinese Academy of Sciences; the plasmid was transformed into DH5a Escherichia coli by the CaC12 method, and after further culture and amplification, the corresponding plasmid DNA was purified and obtained with a plasmid extraction kit (TIANGEN, #D107). HEK293T cells were seeded in 96-well plates at a density of 1×10^4/well one day before plasmid transfection. Cell transfection was performed according to the instructions of the transfection reagent FuGENE® HD (Promega, #E2311), including main steps: […] 0.25 uL of FuGENE® HD was added, mixed well and let stand for 5 min at room temperature; then 10 uL of this mixture was added to the cell well containing 100 uL of culture medium. […] Then the diluted compounds were added to the cell culture medium for treatment for 24 h. 2 duplicate wells were set up in total. […] After cells were treated with compounds for 24 h, detections were performed according to the instructions of the Dual-Glo® Luciferase Assay System (Promega, #E2940), including main steps: […] then 40 uL of Dual-Glo® Stop & Glo® reagent were added and shaken at room temperature for 10 min; the luminescence signal value of Renilla luciferase (Renilla-Luc) was detected by the MD i3x multifunctional microplate reader; The ratio of Firefly-Luc/Renilla-Luc was used as the activating activity of the compound on FXR, and normalized by the ratio of the solvent DMSO group. The dose- response curves were fitted with four parameters using GraphPad Prism 6.0 software, and EC50 values were calculated.
# [1] = Cellular Level Activity EC50(nM) of FXR, HEK293T cells, pGAL4-FXR-LBD/pG5-Luc reporter, 24 h treatment
# [2] = HEK293T cells, pGAL4-FXR-LBD/pG5-Luc reporter, 24 h treatment, read-out: Cellular Level Activity EC50(nM) of FXR
# [3] = HEK293T reporter gene assay, read-out: EC50 values (FXR agonistic activity)
# [4] = EC50 values (FXR agonistic activity), HEK293T reporter gene assay
EC50 [2],Structure (SMILES),EC50 [1],also measured
–,"O=c1[nH]c(-c2ccc(N3[C@@H]4CC[C@H]3C[C@@H](OCc3c(-c5c(Cl)cccc5Cl)noc3C3CC3)C4)cc2F)no1 [Control 1, reference compound]",5 to 10 nM,–
< 5 nM,[2H]C([2H])(O[C@H]1C[C@H]2CC[C@@H](C1)N2c1ccc(-c2noc(=O)[nH]2)cc1)c1c(-c2c(Cl)cccc2Cl)noc1C1CC1 [Example 1],–,EC50 [3]: < 5 nM
< 5 nM,[2H]C([2H])(O[C@H]1C[C@H]2CC[C@@H](C1)N2c1ccc(-c2noc(=O)[nH]2)nc1)c1c(-c2c(Cl)cccc2Cl)noc1C1CC1 [Example 2],–,EC50 [3]: < 5 nM
–,[2H]C([2H])(O[C@H]1C[C@H]2CC[C@@H](C1)N2c1ccc(-c2noc(=O)[nH]2)c(F)c1)c1c(-c2c(Cl)cccc2Cl)noc1C1CC1 [Example 3],< 5 nM,"EC50 [4]: < 5 nM; FXR agonistic / cellular level activity, in words (HEK293T reporter gene assay, comparison with LJN452 and Control 1): significantly improved activity"
–,[2H]C(O[C@H]1C[C@H]2CC[C@@H](C1)N2c1ccc(-c2noc(=O)[nH]2)c(F)c1)c1c(-c2c(Cl)cccc2Cl)noc1C1CC1 (stereo partly drawn) [Example 4],< 5 nM,EC50 [4]: < 5 nM
5 to 10 nM,[2H]C([2H])(O[C@H]1C[C@H]2CC[C@@H](C1)N2c1ccc(-c2noc(=O)[nH]2)c(C)c1)c1c(-c2c(Cl)cccc2Cl)noc1C1CC1 [Example 5],–,–
5 to 10 nM,[2H]C([2H])(O[C@H]1C[C@H]2CC[C@@H](C1)N2c1ccc(-c2noc(=O)[nH]2)c(OC)c1)c1c(-c2c(Cl)cccc2Cl)noc1C1CC1 [Example 6],–,–
5 to 10 nM,[2H]C([2H])(O[C@H]1C[C@H]2CC[C@@H](C1)N2c1ccc(-c2noc(=O)[nH]2)c(C(F)(F)F)c1)c1c(-c2c(Cl)cccc2Cl)noc1C1CC1 [Example 7],–,–
5 to 10 nM,[2H]C([2H])(O[C@H]1C[C@H]2CC[C@@H](C1)N2c1ccc(-c2noc(=O)[nH]2)c(F)c1)c1c(-c2ccccc2C(F)(F)F)noc1C1CC1 [Example 8],–,–
5 to 10 nM,[2H]C([2H])(O[C@H]1C[C@H]2CC[C@@H](C1)N2c1ccc(-c2noc(=O)[nH]2)c(F)c1)c1c(-c2ccccc2OC(F)(F)F)noc1C1CC1 [Example 9],–,–
